Experiments:
Format in all cases: in vivo
Setaria faberi (SETFA) [1] = test: Pre-emergence herbicidal test; conditions: 1000 g/ha, evaluated after 13 days
[2] = tested on: Amaranthus retoflexus (AMARE); test: Pre-emergence herbicidal test; conditions: 1000 g/ha, evaluated after 13 days
Setaria faberi (SETFA) [3] = test: Post-emergence herbicidal test; conditions: 1000 g/ha unless otherwise stated, evaluated after 13 days
Summary of the method: (§1)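 Damage score (0–5; 5=81-100%, 1=10-20%, 0=0%) read 13 d after spraying. Spray: acetone/water 50:50 + 0.5% Tween 20, 1000 g/ha unless stated.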

[4] = tested on: Amaranthus retoflexus (AMARE); test: Post-emergence herbicidal test; conditions: 1000 g/ha unless otherwise stated, evaluated after 13 days
Summary of the method: as §1

Zea mays (ZEAMX) [5] = test: Post-emergence herbicidal test; conditions: 1000 g/ha unless otherwise stated, evaluated after 13 days
Summary of the method: as §1

[6] = tested on: Echinochloa crus-galli (ECHCG); test: Post-emergence herbicidal test; conditions: 1000 g/ha unless otherwise stated, evaluated after 13 days
Summary of the method: as §1

[7] = tested on: Abutilon theophrasti (ABUTH); test: Post-emergence herbicidal test; conditions: 1000 g/ha unless otherwise stated, evaluated after 13 days
Summary of the method: as §1

[8] = tested on: Ipomoea hederacea (IPOHE); test: Post-emergence herbicidal test; conditions: 1000 g/ha unless otherwise stated, evaluated after 13 days
Summary of the method: as §1

[9] = tested on: Echinochloa crus-galli (ECHCG); test: Pre-emergence herbicidal test; conditions: 1000 g/ha, evaluated after 13 days
Zea mays (ZEAMX) [10] = test: Pre-emergence herbicidal test; conditions: 1000 g/ha, evaluated after 13 days
[11] = tested on: Ipomoea hederacea (IPOHE); test: Pre-emergence herbicidal test; conditions: 1000 g/ha, evaluated after 13 days
[12] = tested on: Abutilon theophrasti (ABUTH); test: Pre-emergence herbicidal test; conditions: 1000 g/ha, evaluated after 13 days

Row | SMILES | percentage damage caused to the plant, five-point scale, SETFA (Setaria faberi (SETFA) [1]) | percentage damage caused to the plant, five-point scale, AMARE [2] | percentage damage caused to the plant, SETFA (five-point scale) (Setaria faberi (SETFA) [3]) | percentage damage caused to the plant, AMARE (five-point scale) [4] | percentage damage caused to the plant, ZEAMX (five-point scale) (Zea mays (ZEAMX) [5]) | percentage damage caused to the plant, ECHCG (five-point scale) [6] | percentage damage caused to the plant, ABUTH (five-point scale) [7] | percentage damage caused to the plant, IPOHE (five-point scale) [8] | percentage damage caused to the plant, five-point scale, ECHCG [9] | percentage damage caused to the plant, five-point scale, ZEAMX (Zea mays (ZEAMX) [10]) | percentage damage caused to the plant, five-point scale, IPOHE [11] | percentage damage caused to the plant, five-point scale, ABUTH [12]
1 | CCOC(=O)c1nn(-c2ccc(OC(F)(F)F)cc2)c2cc(F)cc(S(C)(=O)=O)c2c1=O [Compound P52, ethyl 7-fluoro-5-methylsulfonyl-4-oxo-1-[4-(trifluoromethoxy)phenyl]cinnoline-3-carboxylate] | 4 (4=61-80%) | 1 (1=10-20%) | 2 (2=21-40%) | 1 (1=10-20%) | 1 (1=10-20%) | 2 (2=21-40%) | 1 (1=10-20%) | 0 (0=0%) | 3 (3=41-60%) | 0 (0=0%) | 0 (0=0%) | 1 (1=10-20%)
2 | CCOC(=O)c1nn(-c2ccc(OC(F)(F)F)cc2)c2cc(F)cc(SC)c2c1=O [Compound P54, ethyl 7-fluoro-5-methylsulfanyl-4-oxo-1-[4-(trifluoromethoxy)phenyl]cinnoline-3-carboxylate] | 2 (2=21-40%) | 1 (1=10-20%) | 0 (0=0%) | 2 (2=21-40%) | 1 (1=10-20%) | 0 (0=0%) | 1 (1=10-20%) | 1 (1=10-20%) | 2 (2=21-40%) | 0 (0=0%) | 0 (0=0%) | 1 (1=10-20%)
3 | CCOC(=O)c1nn(-c2ccc(OC(F)(F)F)cc2)c2cc(C#N)cc(SC)c2c1=O [Compound P55, ethyl 7-cyano-5-methylsulfanyl-4-oxo-1-[4-(trifluoromethoxy)phenyl]cinnoline-3-carboxylate] | 0 (0=0%) | 0 (0=0%) | 0 (0=0%) | 0 (0=0%) | 0 (0=0%) | 0 (0=0%) | 0 (0=0%) | 0 (0=0%) | 0 (0=0%) | 0 (0=0%) | 0 (0=0%) | 1 (1=10-20%)
4 | COC(=O)c1nn(-c2ccc(OC(F)(F)F)cc2)c2cc(OC)cc(SC)c2c1=O [Compound P56, methyl 7-methoxy-5-methylsulfanyl-4-oxo-1-[4-(trifluoromethoxy)phenyl]cinnoline-3-carboxylate] | 0 (0=0%) | 0 (0=0%) | 0 (0=0%) | 1 (1=10-20%) | 0 (0=0%) | 0 (0=0%) | 0 (0=0%) | 0 (0=0%) | 0 (0=0%) | 0 (0=0%) | 0 (0=0%) | 0 (0=0%)
5 | CCOC(=O)c1nn(-c2ccc(OC(F)(F)F)cc2)c2cc(OC)cc(SC)c2c1=O [Compound P57, ethyl 7-methoxy-5-methylsulfanyl-4-oxo-1-[4-(trifluoromethoxy)phenyl]cinnoline-3-carboxylate] | 0 (0=0%) | 0 (0=0%) | 1 (1=10-20%) | 0 (0=0%) | 0 (0=0%) | 1 (1=10-20%) | 0 (0=0%) | 0 (0=0%) | 0 (0=0%) | 0 (0=0%) | 0 (0=0%) | 0 (0=0%)
6 | CCCCCCOC(=O)c1nn(-c2ccc(OC(F)(F)F)cc2)c2cccc(S(C)(=O)=O)c2c1=O [Compound P59, hexyl 5-methylsulfonyl-4-oxo-1-[4-(trifluoromethoxy)phenyl]cinoline-3-carboxylate] | 4 (4=61-80%) | 2 (2=21-40%) | 4 (4=61-80%) | 1 (1=10-20%) | 2 (2=21-40%) | 4 (4=61-80%) | 1 (1=10-20%) | 3 (3=41-60%) | 3 (3=41-60%) | 3 (3=41-60%) | 2 (2=21-40%) | 3 (3=41-60%)
7 | CCCCCCCCCCCOC(=O)c1nn(-c2ccc(OC(F)(F)F)cc2)c2cccc(S(C)(=O)=O)c2c1=O [Compound P60, undecyl 5-methylsulfonyl-4-oxo-1-[4-(trifluoromethoxy)phenyl]cinnoline-3-carboxylate] | 4 (4=61-80%) | 1 (1=10-20%) | 1 (1=10-20%) | 1 (1=10-20%) | 1 (1=10-20%) | 1 (1=10-20%) | 1 (1=10-20%) | 1 (1=10-20%) | 1 (1=10-20%) | 1 (1=10-20%) | 0 (0=0%) | 1 (1=10-20%)
8 | CS(=O)(=O)c1cccc2c1c(=O)c(C(=O)OCCCl)nn2-c1ccc(OC(F)(F)F)cc1 [Compound P61, 2-chloroethyl 5-methylsulfonyl-4-oxo-1-[4-(trifluoromethoxy)phenyl]cinnoline-3-carboxylate] | 5 (5=81-100%) | 0 (0=0%) | 4 (4=61-80%) | 0 (0=0%) | 0 (0=0%) | 3 (3=41-60%) | 2 (2=21-40%) | 0 (0=0%) | 4 (4=61-80%) | 1 (1=10-20%) | 0 (0=0%) | 0 (0=0%)
9 | C#CCCCOC(=O)c1nn(-c2ccc(OC(F)(F)F)cc2)c2cccc(S(C)(=O)=O)c2c1=O [Compound P62, pent-4-ynyl 5-methylsulfonyl-4-oxo-1-[4-(trifluoromethoxy)phenyl]cinnoline-3-carboxylate] | 5 (5=81-100%) | 0 (0=0%) | 4 (4=61-80%) | 0 (0=0%) | 1 (1=10-20%) | 3 (3=41-60%) | 0 (0=0%) | 0 (0=0%) | 4 (4=61-80%) | 0 (0=0%) | 0 (0=0%) | 0 (0=0%)
